“And” between values parts separate entries of the source, which are not always exact repeats. Equal values may be shown once. “Also recorded” adds a separate entry of the source. Read-outs that look alike come from different tables or passages of the source.
Assays:
Tolerability [1] = assay type: in vivo, human; conditions: single dose
[2] = system: cytochrome P450 (CYP)-3A4; conditions: human hepatocytes; ref unpublished data; cited from earlier work
CYP3A = CYP3A enzyme activity; assay type: in vitro ADME; conditions: primary human hepatocytes
K103N = conditions: major efavirenz-resistant mutation; ref unpublished data; cited from earlier work
CYP3A4 mRNA = CYP3A4 mRNA content in primary human hepatocytes; assay type: in vitro ADME; conditions: human
[3] = system: CYP3A4 messenger ribonucleic acid (mRNA); assay: CYP3A4 mRNA content in primary human hepatocytes; assay type: in vitro ADME; conditions: summary in words
Tolerability [4] = assay type: in vivo, human
[5] = Single-dose pharmacokinetics in healthy subjects; assay type: in vivo, human; conditions: for AUC(0-inf) / AUC(0-t) / Cmax / Tmax / half-life: human, plasma, oral; for AUC∞/dose / Cmax/dose / fe / CL/F: mean ± SD; for fe: unchanged in urine
[6] = Pharmacokinetics over single- and multiple-dose studies together; assay type: in vivo, human
[7] = mice and dogs; preclinical studies; cited from earlier work
Multiple-dose = assay type: in vivo, human; conditions: for steady state attained: RM-ANOVA of predose concentrations; for Accumulation index: AUC144–168h/AUC0–24h; for Accumulation index / AUCτ,ss/dose / CL/F / Cmax,ss/dose / fe: mean ± SD; for fe: unchanged in urine
[8] = system: laboratory strains and clinical HIV-1 isolates; conditions: preclinical; ref unpublished data; cited from earlier work
[9] = Tolerability over the whole study; assay type: in vivo, human
[10] = cited from earlier work; for dose proportionality of Cmax or AUC: healthy subjects
[11] = 75–600 mg, single or multiple doses

With `CCn1c(C(=O)c2cc(C)cc(C#N)c2)c(C(C)C)c(=O)[nH]c1=O` [KM-023, 3-[3-ethyl-5-isopropyl-2,6-dioxo-1,2,3,6-tetrahydro-pyrimidine-4-carbonyl]-5-methyl benzonitrile] the “General disorder, all AEs, number of events” value (Tolerability [1]) was 2 (2), the “General disorder, all AEs, number of subjects” value (Tolerability [1]) was 2 (2) and the “General disorder, drug-related AEs, number of events” value (Tolerability [1]) was 1 (1). For the same compound, the “General disorder, drug-related AEs, number of subjects” value (Tolerability [1]) was 1 (1), the “Genitourinary disorders, all AEs, number of events” value (Tolerability [1]) was 1 (1) and the “Genitourinary disorders, all AEs, number of subjects” value (Tolerability [1]) was 1 (1). The “Genitourinary disorders, drug-related AEs, number of events” value (Tolerability [1]) was 1 (1), the “Genitourinary disorders, drug-related AEs, number of subjects” value (Tolerability [1]) was 1 (1) and the “Musculoskeletal disorders, all AEs, number of events” value (Tolerability [1]) was 2. The “Musculoskeletal disorders, all AEs, number of subjects” value (Tolerability [1]) was 1, the “Musculoskeletal disorders, drug-related AEs, number of events” value (Tolerability [1]) was 2 and the “Musculoskeletal disorders, drug-related AEs, number of subjects” value (Tolerability [1]) was 1. The “Nervous system disorders, all AEs, number of events” value (Tolerability [1]) was 4 (4), the “Nervous system disorders, all AEs, number of subjects” value (Tolerability [1]) was 4 (4) and the “Nervous system disorders, drug-related AEs, number of events” value (Tolerability [1]) was 3 (3). For the same compound, the “Nervous system disorders, drug-related AEs, number of subjects” value (Tolerability [1]) was 3 (3), the “Ophthalmologic disorders, all AEs, number of events” value (Tolerability [1]) was 1 (1) and the “Ophthalmologic disorders, all AEs, number of subjects” value (Tolerability [1]) was 1 (1). For the same compound, the “Oropharyngeal, respiratory, thoracic, and mediastinal disorders, all AEs, number of events” value (Tolerability [1]) was 7, the “Oropharyngeal, respiratory, thoracic, and mediastinal disorders, all AEs, number of subjects” value (Tolerability [1]) was 6 and the “Oropharyngeal, respiratory, thoracic, and mediastinal disorders, drug-related AEs, number of events” value (Tolerability [1]) was 2. The “Oropharyngeal, respiratory, thoracic, and mediastinal disorders, drug-related AEs, number of subjects” value (Tolerability [1]) was 1, the “Total, all AEs, number of events” value (Tolerability [1]) was 17 and the CYP3A4 induction [2] was “moderately induced”. It also gave a fold induction at 0.3 µM (CYP3A; human, probe testosterone) of 1.9, a fold induction at 3 µM (CYP3A; human, probe testosterone) of 5 and a fold induction at 30 µM (CYP3A; human, probe testosterone) of 8.8. The CYP3A enzyme activation (CYP3A; summary in words) was “exhibited a potential for CYP3A enzyme activation”, the “activity against K103N” value (K103N) was “showed activity against K103N” and the fold induction at 0.3 µM (CYP3A4 mRNA) was 2.3. The fold induction at 3 µM (CYP3A4 mRNA) was 6.2, the fold induction at 30 µM (CYP3A4 mRNA) was 6.2 and the “CYP3A4 messenger ribonucleic acid induction” value [3] was “CYP3A4 messenger ribonucleic acid induction”. For the same compound, the “Gastrointestinal disorders, all AEs, number of events” value (Tolerability [4]; multiple doses) was 3 (3), the “Gastrointestinal disorders, all AEs, number of subjects” value (Tolerability [4]; multiple doses) was 3 (3) and the “Gastrointestinal disorders, drug-related AEs, number of events” value (Tolerability [4]; multiple doses) was 3 (3). For the same compound, the “Gastrointestinal disorders, drug-related AEs, number of subjects” value (Tolerability [4]; multiple doses) was 3 (3), the “Nervous system disorders, all AEs, number of events” value (Tolerability [4]; multiple doses) was 4 (4) and the “Nervous system disorders, all AEs, number of subjects” value (Tolerability [4]; multiple doses) was 4 (4). The “Nervous system disorders, drug-related AEs, number of events” value (Tolerability [4]; multiple doses) was 4 (4), the “Nervous system disorders, drug-related AEs, number of subjects” value (Tolerability [4]; multiple doses) was 4 (4) and the “Oropharyngeal, respiratory, thoracic, and mediastinal disorders, all AEs, number of events” value (Tolerability [4]; multiple doses) was 13. The “Oropharyngeal, respiratory, thoracic, and mediastinal disorders, all AEs, number of subjects” value (Tolerability [4]; multiple doses) was 12, the “Oropharyngeal, respiratory, thoracic, and mediastinal disorders, drug-related AEs, number of events” value (Tolerability [4]; multiple doses) was 9 and the “Oropharyngeal, respiratory, thoracic, and mediastinal disorders, drug-related AEs, number of subjects” value (Tolerability [4]; multiple doses) was 8. The “Skin and subcutaneous tissue disorders, all AEs, number of events” value (Tolerability [4]; multiple doses) was 4, the “Skin and subcutaneous tissue disorders, all AEs, number of subjects” value (Tolerability [4]; multiple doses) was 3 and the “Skin and subcutaneous tissue disorders, drug-related AEs, number of events” value (Tolerability [4]; multiple doses) was 1 (1). For the same compound, the “Skin and subcutaneous tissue disorders, drug-related AEs, number of subjects” value (Tolerability [4]; multiple doses) was 1 (1), the “Total, drug-related AEs, number of subjects” value (Tolerability [4]; multiple doses) was 16 and the “epistaxis, occurrences” value (Tolerability [4]; multiple-dose study) was “five”. The “epistaxis, subjects” value (Tolerability [4]; multiple-dose study) was “four”, the AUC(0-inf) ([5]; 75 mg) was 11100 ng·h/mL and the AUC(0-t) ([5]; 75 mg) was 8740 ng·h/mL. For the same compound, the Cmax ([5]; 75 mg) was 440 ± 68.3 ng/mL, the Tmax ([5]; 75 mg) was 2 h and the half-life ([5]; 75 mg) was 29.3 ± 12.5 h. For the same compound, the AUC(0-inf) ([5]; 150 mg) was 14100 ng·h/mL, the AUC(0-t) ([5]; 150 mg) was 11200 ng·h/mL and the Cmax ([5]; 150 mg) was 621 ± 105 ng/mL. The Tmax ([5]; 150 mg) was 2 h, the half-life ([5]; 150 mg) was 29.5 ± 11.9 h and the AUC(0-inf) ([5]; 300 mg) was 18100 ng·h/mL. For the same compound, the AUC(0-t) ([5]; 300 mg) was 14700 ng·h/mL, the Cmax ([5]; 300 mg) was 832 ± 201 ng/mL and the Tmax ([5]; 300 mg) was 2 h. For the same compound, the half-life ([5]; 300 mg) was 31.2 ± 21.1 h, the AUC(0-inf) ([5]; 600 mg) was 33700 ng·h/mL and the AUC(0-t) ([5]; 600 mg) was 26800 ng·h/mL. The Cmax ([5]; 600 mg) was 1250 ng/mL, the Tmax ([5]; 600 mg) was 3 h and the half-life ([5]; 600 mg) was 29.7 ± 15.6 h. The “AUC∞/dose” value ([5]; single dose 75 mg) was 148.6 ± 64.1 ng·mL·h/mg, the Cmax/dose ([5]; single dose 75 mg) was 5.9 ± 0.9 ng/mL/mg and the fe ([5]; single dose 75 mg) was 0.94±0.64%. The “AUC∞/dose” value ([5]; single dose 150 mg) was 94.3 ± 38.2 ng·mL·h/mg, the CL/F ([5]; single dose 150 mg) was 24.8 ± 5.6 L/h and the Cmax/dose ([5]; single dose 150 mg) was 4.1 ± 0.7 ng/mL/mg. For the same compound, the fe ([5]; single dose 150 mg) was 0.65±0.34%, the “AUC∞/dose” value ([5]; single dose 300 mg) was 60.4 ± 30.5 ng·mL·h/mg and the CL/F ([5]; single dose 300 mg) was 40.3 ± 12.4 L/h. The Cmax/dose ([5]; single dose 300 mg) was 2.8 ± 0.7 ng/mL/mg, the fe ([5]; single dose 300 mg) was 0.52±0.41% and the “AUC∞/dose” value ([5]; single dose 600 mg) was 56.2 ± 31.1 ng·mL·h/mg. It also gave a CL/F ([5]; single dose 600 mg) of 50.0 ± 21.9 L/h, a Cmax/dose ([5]; single dose 600 mg) of 2.1 ± 0.7 ng/mL/mg and a fe ([5]; single dose 600 mg) of 0.25±0.17%. For the same compound, the “dose proportionality of Cmax and AUC” value [6, 11] was “Dose proportionality was not observed; also recorded: less than dose-proportional nonlinear pharmacokinetics”, the “pharmacokinetic characteristics (linearity)” value [6, 11] was “dose- and time-dependent nonlinear pharmacokinetic characteristics; also recorded: dose-and time-dependent nonlinear pharmacokinetics; also recorded: dose- and time-dependent nonlinear pharmacokinetic profiles” and the fe ([6]; all dose levels, unchanged drug in urine) was “less than 1%”. The “findings in in vivo safety pharmacology studies” value [7] was “no significant findings”, the steady state attained (Multiple-dose; 75 mg once daily) was over 4 days and the “accumulation after multiple doses” value (Multiple-dose; 600 mg dose group) was 0.6 fold. The steady state attained (Multiple-dose; 150–600 mg once daily) was over 6 days, the Accumulation index (Multiple-dose; multiple doses 75 mg) was 1.1±0.2 and the “AUCτ,ss/dose” value (Multiple-dose; multiple doses 75 mg) was 49.3 ± 13.4 ng·mL·h/mg. The CL/F (Multiple-dose; multiple doses 75 mg) was 21.5 ± 5.4 L/h, the “Cmax,ss/dose” value (Multiple-dose; multiple doses 75 mg) was 5.1 ± 1.7 ng/mL/mg and the fe (Multiple-dose; multiple doses 75 mg) was 0.52±0.40%. For the same compound, the Accumulation index (Multiple-dose; multiple doses 150 mg) was 1.1±0.5, the “AUCτ,ss/dose” value (Multiple-dose; multiple doses 150 mg) was 55.0 ± 27.1 ng·mL·h/mg and the CL/F (Multiple-dose; multiple doses 150 mg) was 22.3 ± 10.2 L/h. The “Cmax,ss/dose” value (Multiple-dose; multiple doses 150 mg) was 4.9 ± 1.7 ng/mL/mg, the fe (Multiple-dose; multiple doses 150 mg) was 0.75±0.52% and the Accumulation index (Multiple-dose; multiple doses 300 mg) was 0.9±0.2. The “AUCτ,ss/dose” value (Multiple-dose; multiple doses 300 mg) was 22.7 ± 6.3 ng·mL·h/mg, the CL/F (Multiple-dose; multiple doses 300 mg) was 48.0 ± 17.6 L/h and the “Cmax,ss/dose” value (Multiple-dose; multiple doses 300 mg) was 2.4 ± 0.6 ng/mL/mg. For the same compound, the fe (Multiple-dose; multiple doses 300 mg) was 0.28±0.15%, the Accumulation index (Multiple-dose; multiple doses 600 mg) was 0.6 and 0.6±0.1 and the “AUCτ,ss/dose” value (Multiple-dose; multiple doses 600 mg) was 17.1 ± 9.5 ng·mL·h/mg. For the same compound, the CL/F (Multiple-dose; multiple doses 600 mg) was 71.9 ± 28.1 L/h, the “Cmax,ss/dose” value (Multiple-dose; multiple doses 600 mg) was 1.8 ± 0.8 ng/mL/mg and the fe (Multiple-dose; multiple doses 600 mg) was 0.18±0.12%. For the same compound, the antiviral activity [8] was “low-nanomolar range”, the “epistaxis, occurrences” value ([9]; both studies, all deemed drug-related) was “seven” and the “changes from baseline in clinical laboratory test results, vital signs, electrocardiography, computerized impedance cardiography, or physical examinations” value ([9]; single or multiple doses) was “no clinically meaningful changes from baseline”. The “serious AEs” value ([9]; single or multiple doses 75–600 mg) was “No serious AEs occurred” and the tolerability ([9]; single or multiple doses 75–600 mg, healthy subjects) was “generally well tolerated without serious adverse events; also recorded: well tolerated”.

For `CCC1(c2ccccc2)C(=O)NC(=O)NC1=O` [Phenobarbital, reference compound], the fold induction at 1 mM (CYP3A; human, probe testosterone) was 9.9 and the fold induction at 1 mM (CYP3A4 mRNA) was 8.9.

In the case of `O=C1Nc2ccc(Cl)cc2[C@@](C#CC2CC2)(C(F)(F)F)O1` [efavirenz], the autoinduction phenomenon [10] is listed as “autoinduction phenomenon has also been observed” and the “dose proportionality of Cmax or AUC” value ([10]; single oral administration 100–1,600 mg) is listed as “increased less than dose-proportionally”.

For `Cc1ccnc2c1NC(=O)c1cccnc1N2C1CC1` [nevirapine], the autoinduction phenomenon [10] is listed as “autoinduction phenomenon has also been observed” and the “dose proportionality of Cmax or AUC” value ([10]; single oral administration 2.5–400 mg) is listed as “increased less than dose-proportionally”.

Reference: paper PMC4189701 (Drug Design, Development and Therapy, 2014)
